# Assay results reported in US11091498B2, “Topoisomerase poisons” (Rutgers, The State University of New Jersey, priority 2016, dated 2021).
# System: KBH5.0 (a variant that overexpresses BCRP)
# Assay: Test B. Efflux Assay: relative cytotoxicity, parent KB3-1 vs KBH5.0
# Format: cell-based
# Settings: relative cytotoxicity between parent KB3-1 and variant KBH5.0 cell lines
# Experimental: The ability of a compound described herein to be actively transported can be determined using pharmacological models that are well known in the art, for example, using a model like test B described below.
# The cytotoxicity of the representative compounds of the invention were also tested against cell line KB3-1 (parent cell line), KBV-1 (a variant that overexpresses efflux transporter MDR1) and KBH5.0 (a variant that overexpresses BCRP). Differences in the relative cytotoxicity between the parent and variant cell lines may be indicative of a compound that is a substrate for an efflux transporter. […] Accordingly, compounds of the invention may be useful to treat tumors that are resistant to other anticancer agents, including anticancer agents that are susceptible to efflux by BCRP (e.g. anthracyclines, mitoxantrone, topotecan, irinotecan, bisanthrone, doxorubicin, daunorubicin, and epirubin.
structure (smiles),measurement,value
COc1cc2c(=O)n(CCN(C)C(=O)C3CCN(C)CC3)c3c4cc5c(cc4ncc3c2cc1OC)OCO5 [Example 2],substrate for efflux transporter BCRP,not a substrate for BCRP
